In the supplement of paper PMC12494721:
Counter-ions that a name gives are not always drawn.

Assays:
Conditions in all cases: incubation time: 27 h, anaerobic, 37 °C
Escherichia coli IAI1 [1] = experiment: fold change of Putrescine concentration vs plate DMSO controls (fold change (ratio)); higher = more amine produced
Escherichia coli IAI1 [2] = experiment: fold change of Cadaverine concentration vs plate DMSO controls (fold change (ratio)); higher = more amine produced
[3] = tested on: Clostridium sporogenes DSM 1664; experiment: growth (OD595) fold change vs plate DMSO controls (fold change (ratio)); higher = more growth
Escherichia coli IAI1 [4] = experiment: as above
[5] = tested on: Clostridium sporogenes DSM 1664; experiment: fold change of Tryptamine concentration vs plate DMSO controls (fold change (ratio)); higher = more amine produced
[6] = tested on: Ruminococcus gnavus DSM 108212; experiment: growth (OD595) fold change vs plate DMSO controls (fold change (ratio)); higher = more growth
[7] = tested on: Ruminococcus gnavus DSM 108212; experiment: fold change of Tryptamine concentration vs plate DMSO controls (fold change (ratio)); higher = more amine produced
[8] = tested on: Ruminococcus gnavus DSM 108212; experiment: fold change of 2-Phenylethylamine concentration vs plate DMSO controls (fold change (ratio)); higher = more amine produced
[9] = tested on: Klebsiella aerogenes DSM 30053; experiment: fold change of Putrescine concentration vs plate DMSO controls (fold change (ratio)); higher = more amine produced
[10] = tested on: Klebsiella aerogenes DSM 30053; experiment: fold change of Cadaverine concentration vs plate DMSO controls (fold change (ratio)); higher = more amine produced
[11] = tested on: Klebsiella aerogenes DSM 30053; experiment: growth (OD595) fold change vs plate DMSO controls (fold change (ratio)); higher = more growth
[12] = tested on: Klebsiella aerogenes DSM 30053; experiment: fold change of Histamine concentration vs plate DMSO controls (fold change (ratio)); higher = more amine produced
Description: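 Dose-response follow-up: bacteria (E. coli IAI1, K. aerogenes DSM 30053, C. sporogenes DSM 1664, R. gnavus DSM 108212) were grown anaerobically in mGAM at 37 °C for 27 h with compound at 0.6125-20 µM. Amines were measured in the whole culture by targeted LC-MS/MS. Metabolite fold change and OD595 fold change are relative to plate DMSO controls; n=2 biological replicates. OD fold changes are not clipped, so slightly negative values mean no growth.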

C=CC1=C(C(=O)O)N2C(=O)[C@@H](NC(=O)/C(=N\OCC(=O)O)c3csc(N)n3)[C@H]2SC1 [Cefixime]
Conditions	fold change of Cadaverine concentration, Escherichia coli IAI1 [2]	fold change of Putrescine concentration, Escherichia coli IAI1 [1]	fold change of Tryptamine concentration, [5]	growth, Escherichia coli IAI1 [4]	growth, [3]
0.6125 µM	1.07	0.815	0.977	0.848	1.05
1.25 µM	1.07	0.897	0.994	0.903	1.02
2.5 µM	1.72	0.839	0.974	0.859	0.842
5 µM	2.01	2.82	0.937	0.193	0.82
10 µM	2.2	1.37	0.925	0.0344	0.675
20 µM	2.17	1.16	0.887	-0.00514	0.527

CCN1CCN(C(=O)N[C@@H](C(=O)N[C@@H]2C(=O)N3C(C(=O)O)=C(CSc4nnnn4C)CS[C@H]23)c2ccc(O)cc2)C(=O)C1=O [Cefoperazone dihydrate]
Conditions	fold change of 2-Phenylethylamine concentration, [8]	fold change of Cadaverine concentration, Escherichia coli IAI1 [2]	fold change of Putrescine concentration, Escherichia coli IAI1 [1]	fold change of Tryptamine concentration, [7]	growth, Escherichia coli IAI1 [4]	growth, [6]
0.6125 µM	0.866	1.07	0.765	1.01	0.9	1.55
1.25 µM	0.808	1.12	0.851	0.955	0.914	1.15
2.5 µM	0.387	1.82	3.2	0.568	0.514	0.937
5 µM	0.153	2.14	1.77	0.22	0.0751	0.627
10 µM	0.105	2.27	1.11	0.14	0.0151	0.478
20 µM	0.0986	2.17	1.04	0.124	-0.0235	0.345

CO/N=C(\C(=O)N[C@@H]1C(=O)N2C(C(=O)[O-])=C(C[n+]3ccn4ncccc43)CS[C@H]12)c1nsc(N)n1 [Cefozopran hydrochloride]
Conditions	fold change of 2-Phenylethylamine concentration, [8]	fold change of Cadaverine concentration, Escherichia coli IAI1 [2]	fold change of Putrescine concentration, Escherichia coli IAI1 [1]	fold change of Tryptamine concentration, [7]	growth, Escherichia coli IAI1 [4]	growth, [6]
0.6125 µM	0.623	0.986	0.772	0.714	0.818	1.24
1.25 µM	0.361	0.959	0.919	0.52	0.863	0.965
2.5 µM	0.162	0.929	0.717	0.275	1.06	1.03
5 µM	0.105	0.962	0.793	0.16	1.12	1.06
10 µM	0.101	1.38	1.12	0.148	1.15	1.24
20 µM	0.0948	2.16	2.17	0.135	0.238	0.529

CO/N=C(\C(=O)N[C@@H]1C(=O)N2C(C(=O)O)=C(COC(N)=O)CS[C@H]12)c1ccco1 [Cefuroxime sodium salt]
Conditions	fold change of Cadaverine concentration, Escherichia coli IAI1 [2]	fold change of Putrescine concentration, Escherichia coli IAI1 [1]	fold change of Tryptamine concentration, [5]	growth, Escherichia coli IAI1 [4]	growth, [3]
0.6125 µM	1.11	0.907	1.01	0.872	0.8
1.25 µM	1.13	0.853	1.01	0.929	0.69
2.5 µM	1.09	0.758	1.04	1.03	0.755
5 µM	2.02	1.11	0.764	0.923	0.214
10 µM	2.06	2.59	0.0406	0.171	-0.0277
20 µM	2.13	1.24	0.0242	0.0264	-0.0443

CCn1cc(C(=O)O)c(=O)c2cc(F)c(N3CCNCC3)nc21 [Enoxacin]
Conditions	fold change of 2-Phenylethylamine concentration	fold change of Cadaverine concentration	fold change of Histamine concentration	fold change of Putrescine concentration	fold change of Tryptamine concentration	growth
Escherichia coli IAI1 [1], 0.6125 µM	–	–	–	0.829	–	–
Escherichia coli IAI1 [1], 1.25 µM	–	–	–	0.362	–	–
Escherichia coli IAI1 [1], 2.5 µM	–	–	–	0.557	–	–
Escherichia coli IAI1 [1], 5 µM	–	–	–	0.832	–	–
Escherichia coli IAI1 [1], 10 µM	–	–	–	0.916	–	–
Escherichia coli IAI1 [1], 20 µM	–	–	–	0.993	–	–
Escherichia coli IAI1 [2], 0.6125 µM	–	1.43	–	–	–	–
Escherichia coli IAI1 [2], 1.25 µM	–	1.6	–	–	–	–
Escherichia coli IAI1 [2], 2.5 µM	–	1.14	–	–	–	–
Escherichia coli IAI1 [2], 5 µM	–	0.433	–	–	–	–
Escherichia coli IAI1 [2], 10 µM	–	0.292	–	–	–	–
Escherichia coli IAI1 [2], 20 µM	–	0.278	–	–	–	–
Escherichia coli IAI1 [4], 0.6125 µM	–	–	–	–	–	0.893
Escherichia coli IAI1 [4], 1.25 µM	–	–	–	–	–	-0.0647
Escherichia coli IAI1 [4], 2.5 µM	–	–	–	–	–	-0.041
Escherichia coli IAI1 [4], 5 µM	–	–	–	–	–	0.063
Escherichia coli IAI1 [4], 10 µM	–	–	–	–	–	0.0275
Escherichia coli IAI1 [4], 20 µM	–	–	–	–	–	-0.0283
[3], 0.6125 µM	–	–	–	–	–	1.15
[3], 1.25 µM	–	–	–	–	–	1.19
[3], 2.5 µM	–	–	–	–	–	1.06
[3], 5 µM	–	–	–	–	–	0.904
[3], 10 µM	–	–	–	–	–	0.245
[3], 20 µM	–	–	–	–	–	0.00474
[5], 0.6125 µM	–	–	–	–	0.988	–
[5], 1.25 µM	–	–	–	–	0.965	–
[5], 2.5 µM	–	–	–	–	0.972	–
[5], 5 µM	–	–	–	–	0.712	–
[5], 10 µM	–	–	–	–	0.133	–
[5], 20 µM	–	–	–	–	0.0376	–
[6], 0.6125 µM	–	–	–	–	–	0.917
[6], 1.25 µM	–	–	–	–	–	1.07
[6], 2.5 µM	–	–	–	–	–	0.725
[6], 5 µM	–	–	–	–	–	0.638
[6], 10 µM	–	–	–	–	–	0.638
[6], 20 µM	–	–	–	–	–	0.488
[7], 0.6125 µM	–	–	–	–	0.907	–
[7], 1.25 µM	–	–	–	–	1.03	–
[7], 2.5 µM	–	–	–	–	1.98	–
[7], 5 µM	–	–	–	–	1.5	–
[7], 10 µM	–	–	–	–	1.3	–
[7], 20 µM	–	–	–	–	1.47	–
[8], 0.6125 µM	0.788	–	–	–	–	–
[8], 1.25 µM	1.01	–	–	–	–	–
[8], 2.5 µM	1.5	–	–	–	–	–
[8], 5 µM	1.16	–	–	–	–	–
[8], 10 µM	1.04	–	–	–	–	–
[8], 20 µM	1.15	–	–	–	–	–
[9], 0.6125 µM	–	–	–	1.03	–	–
[9], 1.25 µM	–	–	–	1.06	–	–
[9], 2.5 µM	–	–	–	1.2	–	–
[9], 5 µM	–	–	–	1.27	–	–
[9], 10 µM	–	–	–	1.3	–	–
[9], 20 µM	–	–	–	1.34	–	–
[10], 0.6125 µM	–	0.977	–	–	–	–
[10], 1.25 µM	–	0.984	–	–	–	–
[10], 2.5 µM	–	0.985	–	–	–	–
[10], 5 µM	–	1.01	–	–	–	–
[10], 10 µM	–	0.999	–	–	–	–
[10], 20 µM	–	0.994	–	–	–	–
[11], 0.6125 µM	–	–	–	–	–	0.845
[11], 1.25 µM	–	–	–	–	–	1.25
[11], 2.5 µM	–	–	–	–	–	0.554
[11], 5 µM	–	–	–	–	–	0.373
[11], 10 µM	–	–	–	–	–	0.469
[11], 20 µM	–	–	–	–	–	0.328
[12], 0.6125 µM	–	–	0.971	–	–	–
[12], 1.25 µM	–	–	1.17	–	–	–
[12], 2.5 µM	–	–	1.18	–	–	–
[12], 5 µM	–	–	0.54	–	–	–
[12], 10 µM	–	–	0.252	–	–	–
[12], 20 µM	–	–	0.329	–	–	–

COc1c(N2CCNC(C)C2)c(F)cc2c(=O)c(C(=O)O)cn(C3CC3)c12 (stereo not given) [Gatifloxacin]
Conditions	fold change of 2-Phenylethylamine concentration, [8]	fold change of Cadaverine concentration, [10]	fold change of Histamine concentration, [12]	fold change of Putrescine concentration, [9]	fold change of Tryptamine concentration, [7]	growth, [6]	growth, [11]
0.6125 µM	1.35	0.983	1.35	1.03	1.31	0.932	0.993
1.25 µM	1.33	1.03	0.852	1.2	1.5	0.65	0.605
2.5 µM	1.67	1.02	0.158	1.26	2.2	0.553	0.302
5 µM	2.18	0.999	0.193	1.35	2.87	0.484	0.348
10 µM	1.22	1	0.284	1.4	1.85	0.3	0.373
20 µM	0.23	0.997	0.4	1.24	0.434	0.107	0.242

C[C@@H](O)[C@H]1C(=O)N2C(C(=O)O)=C(S[C@@H]3CN[C@H](C(=O)N(C)C)C3)[C@H](C)[C@H]12 [Meropenem]
Conditions	fold change of 2-Phenylethylamine concentration, [8]	fold change of Cadaverine concentration, [10]	fold change of Histamine concentration, [12]	fold change of Putrescine concentration, [9]	fold change of Tryptamine concentration, [7]	growth, [6]	growth, [11]
0.6125 µM	0.912	0.982	0.953	1	1.11	1.13	0.844
1.25 µM	0.801	1.01	0.643	1.06	0.93	1.07	0.992
2.5 µM	0.578	1	0.612	0.976	0.801	1.63	0.894
5 µM	0.185	1.06	0.462	1.01	0.259	1.88	1.4
10 µM	0.162	1.13	0.289	0.879	0.217	0.41	0.935
20 µM	0.162	1.18	0.227	0.667	0.2	0.365	0.363

CO[C@@]12[C@H](COC(N)=O)C3=C(C(=O)C(C)=C(N)C3=O)N1C[C@@H]1N[C@@H]12 [Mitomycin C]
Conditions	fold change of Cadaverine concentration, Escherichia coli IAI1 [2]	fold change of Putrescine concentration, Escherichia coli IAI1 [1]	growth, Escherichia coli IAI1 [4]
0.6125 µM	1.42	0.929	0.872
1.25 µM	1.59	1.35	0.904
2.5 µM	1.98	1.27	0.925
5 µM	1.94	1.13	1.05
10 µM	1.25	0.82	0.764
20 µM	0.41	0.673	-0.0235

CN1CCN(c2c(F)cc3c(=O)c(C(=O)O)cn4c3c2SCC4)CC1 [Rufloxacin]
Conditions	fold change of 2-Phenylethylamine concentration, [8]	fold change of Cadaverine concentration, [10]	fold change of Histamine concentration, [12]	fold change of Putrescine concentration, [9]	fold change of Tryptamine concentration, [5]	fold change of Tryptamine concentration, [7]	growth, [3]	growth, [6]	growth, [11]
0.6125 µM	0.871	0.967	1.1	0.99	1	0.989	1.09	1.07	0.848
1.25 µM	1.12	0.979	1.03	0.992	0.994	1.18	0.879	0.974	0.939
2.5 µM	2.04	0.981	1.96	1.05	0.972	2.02	0.898	0.91	0.636
5 µM	1.33	1.03	0.834	1.12	0.931	1.51	1.09	0.61	0.425
10 µM	1.22	1.09	0.211	1.19	0.674	1.24	0.742	0.593	0.466
20 µM	1.18	1.12	0.22	1.19	0.0448	1.16	0.0686	0.484	0.37
